This is an account of results in US12486538B2, “Methods of diagnosing alzheimer's disease and risk of progression to alzheimer's disease” (Loma Linda University Health, priority 2016, dated 2025).

Series [1] relates to neuron-differentiated SH-SY5Y cells. Description: LDH release assay in neuron-differentiated SH-SY5Y cells. It is filed as cell-based, human. The conditions noted are these: for LDH release, dose-response pattern: increasing concentrations. Here is the method: (§1) Rat cortical neurons were dissociated using a papain dissociation kit following manufacturer's instructions (Worthington, NJ; Cat #LK003150). Neurons were cultured in neurobasal medium with B27 supplement with 2 mM glutamine, 50 U/ml penicillin and 50 μg/mL. SH-SY5Y and B103 cells were cultured in DMEM (Sigma Cat #D6429-500M) supplemented with 5% fetal bovine serum. SH-SY5Y cells were differentiated with the addition of 10 μM retinoic acid for 7 days prior to experimentation. LDH assays were conducted with a LDH assay kit following manufacturer's instructions (cat #88954).
A general note: Release of lactate dehydrogenase indicates damage to the cell membrane.

For another series, the system named is B103-EV cells. Description: LDH release assay in B103 cells with empty vector (lack APP). The conditions noted are these: absence of APP, 18 hours. It is filed as cell-based, rat. Here is the method:
as §1, with “experimentation. Transfections were conducted using Lippofectamine LTX (Thermofisher; cat #A12621) according to the manufacturer's instructions.” for “experimentation.”

Series [2] deals with B103-APP695 cells. Description: LDH release assay in B103 cells stably transfected with APP695. It is filed as cell-based, rat. Here is the method: as §1, with “experimentation. Transfections were conducted using Lippofectamine LTX (Thermofisher; cat #A12621) according to the manufacturer's instructions.” for “experimentation.”
Series [3] relates to B103-APP695 cells. Kind of series: LIVE/DEAD assay in B103-APP695 cells. The format is cell-based, rat. The conditions noted are these: 50 μM 27OHC, APP-expressing cells. On the procedure: Live dead cell assays were conducted with live dead cell assay kit according to the manufacturer's instructions (Thermofisher #L3224).
In series [4] the test system is binding of AICD to the MAST4 promoter. Description: ChIP, AICD binding to MAST4 promoter, SH-SY5Y cells. It is filed as cell-based, human. The conditions noted are these: 5 μM 27OHC. On the procedure: (§2) Chromatin Immunoprecipitation (ChIP) assays were conducted according to standard protocols published by ABcam. Following treatments, cells were incubated with formaldehyde at a final concentration of 0.75% for 10 minutes followed by glycine at a final concentration of 125 mM for an additional 5 minutes. Cells were then washed two times with Phosphate Buffered Saline (PBS) and lysed in FA lysis buffer (50 mM HEPES-KOH PH 7.5, 140 mM NaCl, 1 mM EDTA, 1% Triton X-100, 0.1% Sodium Deoxycholate, 0.1% SDS, protease inhibitors). Resulting cell lysates were sonicated to fragment DNA, spun down, and incubated with antibody conjugated protein A sepharose beads (ThermoFisher cat #101041) overnight with gentile agitation. Following incubation, beads were pelleted, washed three times with FA lysis buffer, and DNA was eluted with elution buffer (1% SDS, 100 mM NaHCO3). Resulting DNA fragments were further purified with a DNA purification kit (Clontech cat #740609.250) prior to qPCR analysis. Antibodies used were anti-APP C-terminus (Sigma #A8717); anti-FOXO1 (Abcam #39670).

Series [5] has the same test system. Kind of series: ChIP, AICD binding to MAST4 promoter, transfected B103 cells. It is filed as cell-based, rat. On the procedure:
as §2

Series [6] has the same test system. Description: ChIP, AICD binding to MAST4 promoter, rat cortical neurons. It is filed as cell-based. The conditions noted are these: 5 μM 27OHC. Here is the method:
(§3) Rat cortical neurons were dissociated using a papain dissociation kit following manufacturer's instructions (Worthington, NJ; Cat #LK003150). Neurons were cultured in neurobasal medium with B27 supplement with 2 mM glutamine, 50 U/ml penicillin and 50 μg/mL. SH-SY5Y and B103 cells were cultured in DMEM (Sigma Cat #D6429-500M) supplemented with 5% fetal bovine serum. SH-SY5Y cells were differentiated with the addition of 10 μM retinoic acid for 7 days prior to experimentation.
as §2, with “Resulting DNA fragments were further purified with a DNA purification kit (Clontech cat #740609.250) prior to qPCR analysis. Antibodies used were anti-APP C-terminus (Sigma #A8717); anti-FOXO1 (Abcam #39670).” left out

The subject of series [7] is MAST4 mRNA. Description: qPCR of MAST4 mRNA, SH-SY5Y cells. It is filed as cell-based, human. The conditions noted are these: 5 μM 27OHC. On the procedure: (§4) RNA was purified using TRIzol LS reagent according to the manufacturer's instructions (Thermofisher cat #10296010).
(§5) mRNA was purified with TRIzol reagent, converted to cDNA with reverse transcriptase according to the manufacturer's instructions and quantified with iTaq Universal SYBR Green Supermix (Bio-Rad cat #1725120). Results were determined using the delta-delta cycle threshold (ct) method.
In general terms: In qPCR the cycle at which signal appears reflects the starting amount.

For series [8], the system named is MAST4 mRNA. Kind of series: qPCR of MAST4 mRNA, transfected B103 cells. The format is cell-based, rat. The conditions noted are these: B103 APP695, 5 μM 27OHC. Here is the method:
as §4, §5

For series [9], the system named is MAST4 mRNA. Description: qPCR of MAST4 mRNA, rat cortical neurons. The format is cell-based. The conditions noted are these: 5 μM 27OHC. Here is the method: as §4, §5
In another series the test system is MAST4 protein expression. Kind of series: Immunoblot of MAST4 protein, SH-SY5Y cells. The conditions noted are these: 5 μM 27OHC. It is filed as cell-based, human. On the procedure: (§6) Immunoblotting was conducted as previously described with the following antibodies: APP (Sigma #A8717; Millipore #22C11); MAST4 (GeneTex #GTX87899); FOXO1 (Cell Signaling Technology #2880); RTKN2 (Proteintech #17458-1-AP); caspase-3 (Cell Signaling Technology #9662); caspase-7 (Cell Signaling Technology #9492); actin (Sigma #A5316) (7).

Series [10] relates to FOXO1 phosphorylation by MAST4 kinase. Kind of series: MAST4 in vitro kinase assay on immunoprecipitates from treated cells. It is filed as cell-based, human. Here is the method: Immunoprecipitations were conducted as outlined by ABcam under non-denaturing conditions.
Kinase activity was measured at 37° C. for 30 minutes in 50 μl kinase buffer (50 mM Tris, pH 7.4, 10 mM MgCl2) supplemented with 50 μM ATP and human recombinant FOXO1 (1 μg; Origene #TP300477). Kinase reactions were run on 4-20% Tris-Glycine polyacrylamide gels (Thermofisher) and byproducts identified with anti phospho-Serine/Threonine antibody (Abcam ab17464).

The subject of series [11] is binding of FOXO1 to the RTKN2 promoter. Kind of series: ChIP, FOXO1 binding to RTKN2 promoter, SH-SY5Y cells. The conditions noted are these: 5 μM 27OHC. It is filed as cell-based, human. On the procedure: as §2
For series [12] the test system is unchanged. Kind of series: ChIP, FOXO1 binding to RTKN2 promoter, transfected B103 cells. It is filed as cell-based, rat. The conditions noted are these: B103 expressing APP695, 5 μM 27OHC. Here is the method:
as §2

Series [13] shares this test system. Kind of series: ChIP, FOXO1 binding to RTKN2 promoter, rat cortical neurons. The format is cell-based. On the procedure: as §3, §2
Series [14] concerns RTKN2 mRNA. Kind of series: qPCR of RTKN2 mRNA, SH-SY5Y cells. It is filed as cell-based, human. The conditions noted are these: control siRNA, 5 μM 27OHC. On the procedure: as §4, §5
The subject of series [15] is RTKN2 mRNA. Kind of series: qPCR of RTKN2 mRNA, transfected B103 cells. It is filed as cell-based, rat. The conditions noted are these: B103 with APP695, 5 μM 27OHC. Here is the method:
as §4, §5

Series [16] has as its system RTKN2 mRNA. Description: qPCR of RTKN2 mRNA, rat cortical neurons. The format is cell-based. Here is the method:
as §4, §5

A further series relates to RTKN2 protein expression. Description: Immunoblot of RTKN2 protein, rat cortical neurons. It is filed as cell-based. The conditions noted are these: cytoprotective doses, 2.5 and 5 μM 27OHC. On the procedure: as §6
For orientation: A western blot detects proteins with antibodies after separation by electrophoresis.

Series [17] deals with activated caspase-3, activated caspase-7 and Bax/Bcl2 ratio. Kind of series: Immunoblot of active caspases 3 and 7, Bax, Bcl-2 and RTKN2 in treated cells. The format is cell-based. Here is the method:
as §6

Entries after “also recorded” stand apart in the source; their conditions may differ.

For the molecule `CC(C)C(O)CC[C@@H](C)[C@H]1CC[C@H]2[C@@H]3CC=C4C[C@@H](O)CC[C@]4(C)[C@H]3CC[C@]12C` (stereo partly drawn) [24OHC, 24-hydroxycholesterol], the “LDH release, dose-response pattern” value in [1] (18 hours) is listed as “had no effect; also recorded: No LDH changes are measurable”.

For the molecule `C[C@@H](CO)CCC[C@@H](C)[C@H]1CC[C@H]2[C@@H]3CC=C4C[C@@H](O)CC[C@]4(C)[C@H]3CC[C@]12C` [27OHC, 27-hydroxycholesterol], the “cytotoxicity (LDH)” value is reported as “increasing cytotoxicity” in [1] (15, 25, and 50 μM treatments); “dose-dependently cytotoxic” in the series with B103-APP695 cells [2] (doses greater than 10 μM). For the same molecule, the “concentration of maximum protective effect (LDH)” value in [1] (18 hours) came out at 5 µM. Also, the “LDH release compared to baseline (solvent alone)” value in [1] (concentrations below 10 μM, 18 hours) is “decreased LDH compared to baseline”. Also, in series [1] (higher concentrations (than 10 μM), 18 hours), the “cytotoxicity (LDH release)” value is “dose-dependent cytotoxicity”. Moreover, in series [1] (18 hours), the “LDH release, dose-response pattern” value is on record as “biphasic dose-dependent cellular response”. Moreover, the “LDH levels, dose-response” value in the series with B103-EV cells is given as “increased LDH levels in a dose-dependent manner; also recorded: Cytotoxicity is dose-dependent”. The LDH levels result in the series with B103-APP695 cells [2] (5 μM 27OHC) is on record as “reduced LDH levels”. For the same molecule, in the series with B103-APP695 cells [2] (presence of APP695, 18 hours), the “LDH levels, dose-response pattern” value is given as “biphasic response comparable to that shown by SH-SY5Y cells; also recorded: biphasic pattern”. Besides, in the series with B103-APP695 cells [3], the dead/live cell abundance result was “protective”. Further, the “AICD binding to the MAST4 promoter” value in series [4] is “AICD does bind to the MAST4 promoter”; in series [5] (B103 expressing APPG700A, 5 μM 27OHC) it was “an effect not seen in cells expressing APPG700A”; in series [5] (B103 transfected with APP695, 5 μM 27OHC), “increased AICD binding to the MAST4 promoter”. The “AICD interaction with the MAST4 promoter” value in series [6] is listed as “AICD also interacts with the MAST4 promoter”. Besides, the “MAST4 mRNA levels” value in the series with MAST4 mRNA [7] is “elevated MAST4 mRNA levels”; in the series with MAST4 mRNA [8], “elevated MAST4 mRNA levels”; with MAST4 mRNA [9], “also present in rat primary neurons”. In addition, in the series on MAST4 protein expression, the MAST4 protein expression result is given as “MAST4 protein expression increased”. Moreover, the entries for the “FOXO1 phosphorylation in MAST4 immunoprecipitates” value in [10] (cells treated with 5 μM 27OHC) and in series [10] (cells treated with 50 μM 27OHC) were “Increased FOXO1 phosphorylation” and “No increase in pSer-FOXO1”, respectively. For the same molecule, the “FOXO1 binding to the RTKN2 promoter” value is given as “decrease of that binding” in [11]; “FOXO1 binding was also decreased” in [12]; “increasing” in [13] (15, 25, and 50 μM 27OHC); “decreased binding of FOXO1 to the RTKN2 promoter” in series [13] (cytoprotective doses, 2.5 and 5 μM 27OHC (b174 prints 5 M)). Also, the “FOXO1 binding to the RTKN2 promoter: decreased at 5 μM but not 50 μM” value in [13] (5 and 50 μM 27OHC, FIG. 3F) is recorded as “confirmed in rat cortical neurons”. The “RTKN2 mRNA” value in the series on RTKN2 mRNA [14] is “increased RTKN2 mRNA”; with RTKN2 mRNA [15] it was “RTKN2 was upregulated”; with RTKN2 mRNA [16] (cytoprotective doses, 2.5 and 5 μM 27OHC) it was “increased RTKN2 mRNA”. Moreover, in the series on RTKN2 mRNA [16] (5 and 50 μM 27OHC, FIG. 3J), the “RTKN2 mRNA: upregulated at 5 μM but not 50 μM” value was “confirmed in rat cortical neurons”. For the same molecule, the RTKN2 protein expression entry in the series with RTKN2 protein expression is listed as “increased”. Also, the Bcl-2 result in series [17] (5 μM 27OHC) is “robust increase in Bcl-2”; in series [17] (50 μM 27OHC), “decreased Bcl-2”. The RTKN2 protein result in series [17] (5 μM 27OHC) was “robust increase in Bcl-2 and RTKN2”. Also, the figures for the “active forms of caspases 3 and 7” value in series [17] (5 μM 27OHC) and in series [17] (50 μM 27OHC) were “decrease in active forms of both caspases” and “increased the active forms of both caspases”, respectively.
